The test has as its target T1, MurA enzyme (Bacillus subtilis, UniProt P70965).
T1 construct: expressed in transfected cells
In words: MurA-CFP enzyme localization (condensation) by fluorescence imaging in B. subtilis cells. It is filed as cell-based. The note with it: for state of MurA-CFP enzyme in the cell (localized or diffuse): exposure during exponential growth, 5 mM fosfomycin or 0.5 μg ml^−1 vancomycin, fluorescence imaging, 30° C. As to the method: Enzymatic activity of the MurA enzyme in Bacillus subtilis was measured in the presence of enzyme condensation modulating agents. MurA enzyme is involved in an enzymatic biosynthetic pathway that catalyzes a biosynthetic precursor of peptidoglycan, a polymer of the cell wall. The agents that were assessed for effects on MurA were antibiotics fosfomycin and vancomycin.
The B. subtilis cells were cultivated to express a MurA-CFP conjugate protein (MurA-cyan fluorescent protein) under its natural promoter. After one hour in exponential growth, 1 ml of cell culture was centrifuged. The supernatant was collected and added to 2 ml of melted […] agarose solution in LB. The resulting 1.2% solution of molten agar/culture supernatant was supplemented with 0.5 μg ml^−1 FM 4-64 dye (N-(3-triethylammoniumpropyl)-4-(6-(4-(diethylamino) phenyl) hexatrienyl) pyridinium dibromide). Then 5 mM fosfomycin or 0.5 μg ml^−1 vancomycin was added to the well of a culture slide (wells 18 mm diameter×1.75 mm depth) and covered with a glass slide.
After cooling, the cover glass was removed and two air pockets were cut out of the agarose with a 15 ml tube, leaving a 3-5 mm agar bridge in the center of the well. Seven microliters of the remaining culture was spread over the agar, partially dried and sealed with cover glass. After cooling, the slide was removed and two air pockets were cut out of the agar leaving a 3-5 mm agar bridge in the center of the well. Cells were suspended in LB with FM4-64 dye (0.5 μg ml^−1) and were added at the agar bridge and covered by a glass coverslip. To prevent drying during the experiment, 50% glycerol was applied to the region of contact between the slide and the coverslip.
The slide was equilibrated in an environmentally controlled chamber at 30° C. (Precision Control Weather Station) for at least 10 min prior to visualization. […] After 2 hours of imaging, MurA-CFP expressing cells stopped growing, but the condensation of the enzyme could be detected by a bright fluorescent spot.

Molecules are shown by their SMILES.

T1 sequence (P70965 whole entry): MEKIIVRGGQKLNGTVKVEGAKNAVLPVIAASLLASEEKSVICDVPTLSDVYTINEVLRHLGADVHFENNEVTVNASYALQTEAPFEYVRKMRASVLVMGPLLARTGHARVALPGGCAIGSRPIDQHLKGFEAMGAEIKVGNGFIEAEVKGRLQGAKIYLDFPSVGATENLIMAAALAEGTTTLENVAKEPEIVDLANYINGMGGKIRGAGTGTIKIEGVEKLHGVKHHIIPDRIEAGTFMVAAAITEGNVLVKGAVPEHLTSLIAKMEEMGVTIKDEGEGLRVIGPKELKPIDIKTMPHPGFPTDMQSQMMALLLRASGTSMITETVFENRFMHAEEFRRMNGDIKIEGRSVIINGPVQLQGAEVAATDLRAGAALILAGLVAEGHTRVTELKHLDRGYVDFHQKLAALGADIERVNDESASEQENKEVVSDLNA

With `C[C@@H]1O[C@@H]1P(=O)(O)O` [Fosfomycin, fosfomycin], the “state of MurA-CFP enzyme in the cell (localized or diffuse)” value is “localized”. Moreover, under “added to the cells during stationary growth before MurA began to localize (not shown)”, the “areas of localized MurA-CFP” value is “not observed”.
As to `CN[C@H](CC(C)C)C(=O)N[C@H]1C(=O)N[C@@H](CC(N)=O)C(=O)N[C@H]2C(=O)N[C@H]3C(=O)N[C@H](C(=O)N[C@H](C(=O)O)c4cc(O)cc(O)c4-c4cc3ccc4O)[C@H](O)c3ccc(c(Cl)c3)Oc3cc2cc(c3O[C@@H]2O[C@H](CO)[C@@H](O)[C@H](O)[C@H]2O[C@H]2C[C@](C)(N)[C@H](O)[C@H](C)O2)Oc2ccc(cc2Cl)[C@H]1O` [Vancomycin, vancomycin], the “state of MurA-CFP enzyme in the cell (localized or diffuse)” value is on record as “diffuse”.

Source of the values: patent publication US10656158B2, “Identification of enzyme activity through determination of its localization” (International Business Machines Corporation, priority 2014, dated 2020).
